Experimental findings from PubChem BioAssay AID1671277 are described below.

The target in this assay is Tyrosine-protein kinase Fgr (Homo sapiens) (UniProt P09769). Nature of the assay: FGR kinase inhibition, dose response, biochemical, Z'-LYTE, FRET readout, direct format (AID 1671277). As to conditions: Z'-LYTE FRET kinase activity, recombinant FGR.

pIC50: −log10 of the molar value.

Chain of Tyrosine-protein kinase Fgr (Homo sapiens) (P09769 whole entry, looked up): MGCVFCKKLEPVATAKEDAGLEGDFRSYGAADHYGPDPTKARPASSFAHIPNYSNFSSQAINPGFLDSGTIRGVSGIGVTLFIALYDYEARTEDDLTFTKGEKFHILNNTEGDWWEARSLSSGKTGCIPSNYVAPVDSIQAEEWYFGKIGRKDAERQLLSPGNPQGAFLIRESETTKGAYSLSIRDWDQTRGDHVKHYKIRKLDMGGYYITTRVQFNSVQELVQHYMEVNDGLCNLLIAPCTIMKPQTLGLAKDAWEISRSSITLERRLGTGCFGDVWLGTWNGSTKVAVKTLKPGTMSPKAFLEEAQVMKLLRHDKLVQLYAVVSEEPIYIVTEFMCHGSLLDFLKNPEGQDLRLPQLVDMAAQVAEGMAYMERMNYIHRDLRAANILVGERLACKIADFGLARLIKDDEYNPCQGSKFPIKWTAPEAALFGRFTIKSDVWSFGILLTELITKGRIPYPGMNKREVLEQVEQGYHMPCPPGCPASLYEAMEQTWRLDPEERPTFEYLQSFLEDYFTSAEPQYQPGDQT

Consider `COc1cc2ncnc(Nc3cccc(Cl)c3)c2cc1OC`, for which the pIC50 is 6.04.
